This is an account of results in patent US9481659B2, “Selective heterocyclic sphingosine 1 phosphate receptor modulators” (Celgene International II SÀRL, priority 2011, dated 2016).

Like-named read-outs stand apart in the source and are kept apart here.

Test [1] deals with T1, S1P2 (Homo sapiens, UniProt O95136).
T1 construct: expressed in transfected cells; host or cells: CRE-bla CHOK1
Nature of the test: Specificity over other S1P receptors: S1P2 CRE-bla CHOK1. Format: cell-based. As to conditions: S1P2 CRE-bla CHOK1, without Forskolin; read-out: S1P2 agonist value (EC50). The protocol:
(§1) Cells were seeded into 384-well black wall/clear bottom plates at 10^4 cells/well/19.5 μl assay media (DMEM-phenol free, 0.5% charcoal/dextran stripped serum, 2 mM glutamine, 0.1 mM NEAA, 1 mM Na-Pyruvate, 25 mM Hepes) and incubated for 18 hrs at 37° C. in 5% CO2. Dose response curves (10-point) were generated in 10 mM Hepes, 0.1% Pluronic F127, in the presence of Forskolin. Cells were treated with 0.5 μl compound in the presence of 2 μM Forskolin for 4 hrs at 37° C. The FRET-based β-lactamase fluorescent substrate (LiveBLAzer™-FRET B/G Loading Kit CC4-AM; Invitrogen) was prepared according to manufacturer's directions, and incubated with cells for 2 hrs at room temperature. Plates were read at Ex:410/Em:458 and Ex:410/Em:522, and the response ratio determined Data was analyzed by non-linear regression to determine the EC50 for inhibition of Forskolin induced cAMP.
(§2) To assess compound specificity on other […] receptors the following cell lines were used: S1P2 CRE-bla CHOK1, S1P3-Gα15 NFAT-bla HEK293T (Invitrogen), S1P4-bla TANGO U2OS (Invitrogen), S1P5-bla TANGO U2OS (Invitrogen). The same assay set up for S1P1 was used but without Forskolin. S1P4 and S1P5 assays were performed in FreeStyle Expression medium (Invitrogen). S1P5 cells were incubated for 48 hrs in prior to treatment with compound.

The target of test [2] is T2, S1P3 (Homo sapiens, UniProt Q99500).
T2 construct: host or cells: NFAT-bla HEK293T
T2 sequence (Q99500 whole entry): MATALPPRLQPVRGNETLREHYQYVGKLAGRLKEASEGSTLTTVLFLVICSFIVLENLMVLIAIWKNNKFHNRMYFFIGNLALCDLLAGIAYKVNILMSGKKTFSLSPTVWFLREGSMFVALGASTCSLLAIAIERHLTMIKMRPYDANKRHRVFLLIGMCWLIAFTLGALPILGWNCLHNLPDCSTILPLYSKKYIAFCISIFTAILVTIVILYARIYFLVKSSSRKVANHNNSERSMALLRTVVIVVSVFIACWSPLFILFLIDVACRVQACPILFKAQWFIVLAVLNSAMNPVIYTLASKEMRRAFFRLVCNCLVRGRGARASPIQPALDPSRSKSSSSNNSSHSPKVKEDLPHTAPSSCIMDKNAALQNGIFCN
Nature of the test: Specificity over other S1P receptors: S1P3-Gα15 NFAT-bla HEK293T. Format: cell-based. The conditions noted are these: without Forskolin, read-out: S1P3 agonist value (EC50). How it is done: as §1, §2

Test [3] addresses T3, S1P4 (Homo sapiens, UniProt O95977).
T3 construct: Tango fusion: TEV protease site plus GAL4-VP16 transcription factor (own knowledge of the Tango format); host or cells: U2OS (bla TANGO)
T3 sequence (O95977 1-384): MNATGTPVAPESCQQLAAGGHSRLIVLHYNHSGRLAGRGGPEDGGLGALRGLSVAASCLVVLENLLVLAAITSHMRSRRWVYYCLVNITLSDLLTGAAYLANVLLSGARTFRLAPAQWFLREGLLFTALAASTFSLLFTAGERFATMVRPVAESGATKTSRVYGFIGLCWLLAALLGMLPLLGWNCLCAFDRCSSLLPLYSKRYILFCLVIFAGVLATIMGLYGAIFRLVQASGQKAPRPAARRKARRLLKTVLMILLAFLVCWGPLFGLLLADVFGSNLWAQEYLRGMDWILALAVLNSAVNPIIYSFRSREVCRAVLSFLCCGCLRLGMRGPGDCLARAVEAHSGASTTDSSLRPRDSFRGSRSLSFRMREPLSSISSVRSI
Nature of the test: Specificity over other S1P receptors: S1P4-bla TANGO U2OS. Format: cell-based. As to conditions: without Forskolin, read-out: S1P4 agonist value (EC50). The protocol: as §1, with “temperature.” for “temperature. Plates were read at Ex:410/Em:458 and Ex:410/Em:522, and the response ratio determined Data was analyzed by non-linear regression to determine the EC50 for inhibition of Forskolin induced cAMP.”
as §2

Test [4] relates to CD4 or CD8 positive T cells. Put plainly: Lymphopenia in rats. Format: in vivo. The conditions noted are these: for inhibition in vivo at 0.2 mg/kg: po, rat, 24 h after a 0.2 mg/kg single dose; for ED50: read-out: ED50 (estimated dose needed to produce 50% lymphopenia), rat, at 24 h after a 3-5 day dosing regimen. The protocol:
In rats: Female rats (Simonsen Laboratories, Gilroy Calif.) were housed in an ALAAC accredited facility and the research was approved by the facilities Institutional Animal Care and Use Committee (IACUC). The animals were acclimated to the laboratory for at least 5 days prior to initiation of experiments. Rats (n=3/compound/time-point) were dosed by oral gavage with 1 mg/kg compound formulated in a vehicle consisting of 5% DMSO/5% Tween 20 and 90% 0.1N HCL. Control rats were dosed PO with the vehicle. Whole blood was collected from isoflurane anesthetized rats via the retro-orbital sinus and terminal samples were collected by cardiac puncture into EDTA. Whole blood was incubated with mouse anti-rat CD32 (BD #550271), PE-mouse anti-rat CD45R/B220 (BD #554881), PECy5-mouse anti-rat CD4 (BD #554839), and APC-mouse anti-rat CD8a (eBioscience #17-0084) for 30 minutes on ice. Red blood cells were lysed using BD Pharm Lyse Lysing buffer (#555899) and white blood cells were analyzed with a BD FACSArray. Lymphopenia was expressed as the % of white blood cells that were CD4 or CD8 positive T cells. The overall lymphopenia response over 24 h was estimated by calculating the area under the effect curve (AUEC) using the linear trapezoidal rule. In some experiments, total lymphocyte counts were determined using a standard impedance based veterinary hematology analyzer (IDEXX Preclinical Research Services, Sacramento, Calif.).
The percentage of lymphopenia at 24 h after a 0.2 mg/kg single dose regiment is reported. […] N/A is not available.

The target in test [5] is S1P1/EDG1 (Homo sapiens, UniProt P21453). Nature of the test: S1P1 CRE-bla CHOK1 reporter assay, inhibition of Forskolin induced cAMP. Format: cell-based. As to conditions: S1P1 CRE-bla CHOK1 cells, 2 μM Forskolin. In a few lines:
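CRE-bla CHO K1 cells stably expressing human S1P1 were treated 4 hrs at 37° C with 10-point compound dilutions plus 2 μM Forskolin. Inhibition of cAMP-driven β-lactamase reporter was read with a FRET substrate loaded 2 hrs at room temperature.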

Test [6] concerns the target T4, S1P5 (Homo sapiens, UniProt Q9H228).
T4 construct: Tango fusion: TEV protease site plus GAL4-VP16 transcription factor (own knowledge of the Tango format); host or cells: U2OS (bla TANGO)
Put plainly: Specificity over other S1P receptors: S1P5-bla TANGO U2OS. Format: cell-based. As to conditions: without Forskolin, read-out: S1P5 agonist value (EC50). The protocol:
as §1, with “temperature.” for “temperature. Plates were read at Ex:410/Em:458 and Ex:410/Em:522, and the response ratio determined Data was analyzed by non-linear regression to determine the EC50 for inhibition of Forskolin induced cAMP.”
as §2

The mark [7] stands for this setting: read-out: S1P1 agonist value (EC50).
Setting [8] is: agonist activity range, read-out: S1P1 ACTIVITY

T1 sequence (O95136 whole entry, species assumed): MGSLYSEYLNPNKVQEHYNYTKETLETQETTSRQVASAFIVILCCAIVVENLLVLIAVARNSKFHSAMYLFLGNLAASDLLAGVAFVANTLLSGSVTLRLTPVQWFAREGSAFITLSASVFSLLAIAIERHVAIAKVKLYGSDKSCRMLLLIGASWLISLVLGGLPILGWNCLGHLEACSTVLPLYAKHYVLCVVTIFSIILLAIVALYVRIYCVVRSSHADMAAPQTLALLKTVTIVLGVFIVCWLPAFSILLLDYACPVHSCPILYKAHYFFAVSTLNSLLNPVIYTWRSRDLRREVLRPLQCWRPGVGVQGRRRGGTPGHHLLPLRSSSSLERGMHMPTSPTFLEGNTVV
Chain of S1P1/EDG1 (P21453 whole entry): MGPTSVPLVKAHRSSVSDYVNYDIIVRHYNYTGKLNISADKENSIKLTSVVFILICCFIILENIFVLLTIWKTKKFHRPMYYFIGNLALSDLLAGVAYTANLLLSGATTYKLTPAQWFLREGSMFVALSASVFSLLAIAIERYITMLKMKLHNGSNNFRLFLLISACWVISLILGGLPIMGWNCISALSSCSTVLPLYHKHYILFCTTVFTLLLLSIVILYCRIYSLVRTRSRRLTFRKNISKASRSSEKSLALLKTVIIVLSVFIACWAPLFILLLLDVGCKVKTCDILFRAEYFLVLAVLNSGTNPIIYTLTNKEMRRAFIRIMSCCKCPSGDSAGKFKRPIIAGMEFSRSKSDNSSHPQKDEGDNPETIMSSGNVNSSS
T4 sequence (Q9H228 whole entry, the tested form may be a part): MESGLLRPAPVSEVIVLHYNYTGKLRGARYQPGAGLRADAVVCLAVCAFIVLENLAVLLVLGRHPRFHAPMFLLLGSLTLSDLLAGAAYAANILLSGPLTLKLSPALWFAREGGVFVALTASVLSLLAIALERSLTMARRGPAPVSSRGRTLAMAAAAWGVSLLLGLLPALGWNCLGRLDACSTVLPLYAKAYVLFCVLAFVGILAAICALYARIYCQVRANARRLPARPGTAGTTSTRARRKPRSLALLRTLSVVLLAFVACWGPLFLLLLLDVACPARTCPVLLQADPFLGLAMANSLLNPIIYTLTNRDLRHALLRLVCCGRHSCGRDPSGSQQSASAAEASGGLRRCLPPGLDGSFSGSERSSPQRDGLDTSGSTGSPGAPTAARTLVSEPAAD

Take `CC(C)Oc1ccc(-c2nnc(-c3cccc4c3CCC4NS(=O)(=O)CC(=O)N(C)C)s2)cc1C#N` (stereo in doubt) [Compound 43, (R)-2-(N-(4-(5-(3-cyano-4-isopropoxyphenyl)-1,3,4-thiadiazol-2-yl)-2,3-dihydro-1H-inden-1-yl)sulfamoyl)-N,N-dimethylacetamide]: the EC50 in test [1], in test [2] and in test [3] was over 10000 nM in each case. In addition, at 0.2 mg/kg the inhibition in vivo in test [4] was 40%.

Regarding `CC(C)Oc1ccc(-c2nnc(-c3cccc4c3CCC4NS(=O)(=O)CCO)s2)cc1C#N` (stereo in doubt) [Compound 46, (R)—N-(4-(5-(3-cyano-4-isopropoxyphenyl)-1,3,4-thiadiazol-2-yl)-2,3-dihydro-1H-inden-1-yl)-2-hydroxyethanesulfonamide], the EC50 in test [1] and in test [2] was over 10000 nM each time. The compound further yielded an inhibition in vivo at 0.2 mg/kg in test [4] of 39%.

Consider `CC(C)Oc1ccc(-c2nnc(-c3cccc4c3CC[C@H]4NC(=O)N3CC[C@@H](N(C)C)C3)s2)cc1C#N` [Compound 56, (R)—N—((R)-4-(5-(3-cyano-4-isopropoxyphenyl)-1,3,4-thiadiazol-2-yl)-2,3-dihydro-1H-inden-1-yl)-3-(dimethylamino)pyrrolidine-1-carboxamide], for which the EC50 in test [5] (setting [7]) was 0.32 nM; in test [5] (setting [8]), 0.05 to 0.5 nM; in test [1] it was over 10000 nM; in test [2], over 10000 nM; in test [3] it was over 10000 nM; in test [6], 139 nM. Besides, at 0.2 mg/kg the inhibition in vivo in test [4] was 52%.

`CC(C)Oc1ccc(-c2nnc(-c3cccc4c3CC[C@H]4NC(=O)N3CCOCC3)s2)cc1C#N` [Compound 58, (R)—N-(4-(5-(3-cyano-4-isopropoxyphenyl)-1,3,4-thiadiazol-2-yl)-2,3-dihydro-1H-inden-1-yl)morpholine-4-carboxamide]: the EC50 in test [5] (setting [8]) is 0.05 to 0.5 nM; in test [1], over 10000 nM; in test [3], over 10000 nM.

In the case of `CC(C)Oc1ccc(-c2ncc(-c3cccc4c3CC[C@H]4NS(N)(=O)=O)s2)cc1C#N` [Compound 166, (R)—N-(4-(2-(3-cyano-4-isopropoxyphenyl)thiazol-5-yl)-2,3-dihydro-1H-inden-1-yl)sulfamide], the EC50 in test [5] (setting [7]) was 0.14 nM; in test [5] (setting [8]), 0.05 to 0.5 nM; in test [1], 8450 nM; in test [2] it was over 10000 nM; in test [3], 743 nM; in test [6], 64 nM. In test [4], this compound gave an inhibition in vivo at 0.2 mg/kg of 47%. For the same compound, the ED50 in test [4] is 0.07 mg/kg.

As to `CC(C)Oc1ccc(-c2ncc(-c3cccc4c3CC[C@H]4NC(=O)N3CCCC3)s2)cc1C#N` [Compound 172, (R)—N-(4-(2-(3-cyano-4-isopropoxyphenyl)thiazol-5-yl)-2,3-dihydro-1H-inden-1-yl)pyrrolidine-1-carboxamide], the EC50 in test [5] (setting [7]) is 0.19 nM; in test [5] (setting [8]) it was 0.05 to 0.5 nM; in test [1], over 10000 nM; in test [2] it was over 10000 nM; in test [3], over 10000 nM; in test [6] it was 203 nM. In addition, the inhibition in vivo at 0.2 mg/kg in test [4] stood at 22%. Also, in test [4], the 50% effective dose (ED50) was 0.2 mg/kg.

As for `CC(C)Oc1ccc(-c2ncc(-c3cccc4c3CC[C@H]4NC(=O)N3CCOCC3)s2)cc1C#N` [Compound 186, (R)—N-(4-(2-(3-cyano-4-isopropoxyphenyl)thiazol-5-yl)-2,3-dihydro-1H-inden-1-yl)morpholine-4-carboxamide], the EC50 in test [5] (setting [8]) was 0.05 to 0.5 nM; in test [1] it was over 10000 nM; in test [3] it was over 10000 nM.
